# Laboratory results reported in patent publication US9732094B2, “Arylquinazolines” (Merck Patent GmbH, priority 2013, dated 2017).
# Like-named read-outs stand apart in the source and are kept apart here.
# Columns and labels:
# [1] = target: DNA-PK (Homo sapiens (Human), UniProt P78527); experiment: DNA-PK assay (biochemical), flashplate 33P-ATP kinase assay; details: enzymatic; 5 μM ATP
# Outline: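 Radiometric kinase reaction in streptavidin-coated flashplates, stopped with 200 mM EDTA, then 30 min room-temperature incubation and saline washes.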
# [2] = target: DNA-PK phosphorylation at serine 2056 (Homo sapiens (Human), UniProt P78527); experiment: DNA-PK phosphorylation at serine 2056 (cellular), bleomycin-treated HCT116 cells, ELISA; format: cell-based; details: cellular; HCT116 cells, 10 μM bleomycin, six hours; read-out: IC50 pDNA-PK
# Outline: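 HCT116 cells were treated with 10 μM bleomycin plus test compounds for six hours at 37 °C. Phospho-Ser2056 DNA-PK measured by chemiluminescent ELISA, normalised to total DNA-PKcs signal; DMSO control as blank.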
# [3] = target: Kv11.1 (hERG) (Homo sapiens (Human), UniProt Q12809); experiment: Kv11.1 (hERG) ion channel activity (patch clamp assay), HEK293 cells transfected with hERG gene; details: patch clamp, HEK293 transfected with hERG gene
# Sequence of Kv11.1 (hERG) (Q12809 whole entry): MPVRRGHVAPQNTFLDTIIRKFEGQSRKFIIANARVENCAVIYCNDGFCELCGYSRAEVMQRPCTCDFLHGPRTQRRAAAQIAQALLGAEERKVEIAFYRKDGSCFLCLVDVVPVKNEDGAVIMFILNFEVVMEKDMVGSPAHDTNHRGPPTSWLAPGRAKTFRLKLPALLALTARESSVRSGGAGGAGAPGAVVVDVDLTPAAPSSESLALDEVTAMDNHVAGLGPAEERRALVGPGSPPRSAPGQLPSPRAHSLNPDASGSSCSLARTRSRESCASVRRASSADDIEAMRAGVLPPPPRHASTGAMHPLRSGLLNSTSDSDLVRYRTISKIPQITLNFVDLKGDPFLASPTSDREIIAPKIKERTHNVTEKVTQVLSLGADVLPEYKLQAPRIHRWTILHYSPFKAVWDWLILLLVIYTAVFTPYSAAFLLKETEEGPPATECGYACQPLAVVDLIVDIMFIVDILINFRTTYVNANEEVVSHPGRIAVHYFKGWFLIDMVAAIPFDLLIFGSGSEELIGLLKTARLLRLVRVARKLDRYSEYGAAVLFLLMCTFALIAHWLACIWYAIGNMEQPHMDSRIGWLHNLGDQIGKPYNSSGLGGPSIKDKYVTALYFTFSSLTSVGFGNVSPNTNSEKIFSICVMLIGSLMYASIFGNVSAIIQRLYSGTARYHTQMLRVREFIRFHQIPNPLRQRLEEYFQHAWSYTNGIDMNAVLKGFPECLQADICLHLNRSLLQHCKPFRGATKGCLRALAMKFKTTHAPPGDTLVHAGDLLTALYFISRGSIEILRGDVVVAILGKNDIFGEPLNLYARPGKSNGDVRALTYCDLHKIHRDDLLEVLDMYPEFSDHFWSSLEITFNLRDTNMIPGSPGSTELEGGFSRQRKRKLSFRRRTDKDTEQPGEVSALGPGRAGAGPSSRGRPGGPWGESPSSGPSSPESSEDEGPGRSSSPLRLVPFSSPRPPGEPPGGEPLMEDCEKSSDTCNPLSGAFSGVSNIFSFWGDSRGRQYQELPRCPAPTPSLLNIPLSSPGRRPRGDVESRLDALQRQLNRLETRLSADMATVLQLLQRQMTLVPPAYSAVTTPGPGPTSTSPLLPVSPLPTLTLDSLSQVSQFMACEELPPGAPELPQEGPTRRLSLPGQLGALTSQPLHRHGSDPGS
SMILES,IC50 [1] [nM],IC50 [2] [nM],Ki ([3]; Ki [Kv1.11 hERG]) [nM],Ki ([3]; read-out: Ki [Kv1.11 hERG]) [nM]
"COc1nccnc1C(O)c1ccc(F)c(-c2ncnc3cc(N4CCOCC4)ccc23)c1 (stereo not drawn) [Example 15, [4-Fluoro-3-(7-morpholin-4-yl-quinazolin-4-yl)phenyl]-(3-methoxy-pyrazin-2-yl)methanol]",< 3,< 500,15000 to 25000,–
"COc1nccnc1C(O)c1ccc(F)c(-c2ncnc3cc(N4CCOCC4)ccc23)c1 (stereo not drawn) [Example 16, [4-Fluoro-3-(7-morpholin-4-yl-quinazolin-4-yl)phenyl]-(3-methoxy-pyrazin-2-yl)methanol]",7 to 30,500 to 5000,–,> 25000
"OC(c1ccc(F)c(-c2ncnc3cc(N4CCOCC4)ccc23)c1)c1c(Cl)cncc1Cl (stereo not drawn) [Example 17, (3,5-Dichloro-pyridin-4-yl)-[4-Fluoro-3-(7-morpholin-4-yl-quinazolin-4-yl)phenyl]-methanol]",3 to 7,500 to 5000,10000 to 15000,–
"COc1ccnnc1C(O)c1ccc(F)c(-c2ncnc3cc(N4CCOCC4)ccc23)c1 (stereo not drawn) [Example 18, [4-Fluoro-3-(7-morpholin-4-yl-quinazolin-4-yl)phenyl]-(4-methoxy-pyridazin-3-yl)methanol]",< 3,500 to 5000,15000 to 25000,–
"COc1cnc(Cl)c(C(O)c2ccc(F)c(-c3ncnc4cc(N5CCOCC5)ccc34)c2)c1 (stereo not drawn) [Example 22, (2-Chloro-5-methoxy-pyridin-3-yl)-[4-fluoro-3-(7-morpholin-4-yl-quinazolin-4-yl)phenyl]-methanol]",< 3,< 500,–,< 10000
"COc1ncc(Cl)nc1C(O)c1ccc(F)c(-c2ncnc3cc(N4CCOCC4)ccc23)c1 (stereo not drawn) [Example 25, (6-Chloro-3-methoxy-pyrazin-2-yl)-[4-fluoro-3-(7-morpholin-4-yl-quinazolin-4-yl)phenyl]-methanol]",3 to 7,< 500,–,< 10000
"COc1cnc(Cl)c(C(O)c2ccc(F)c(-c3ncnc4cc(N5CCOCC5)ccc34)c2)n1 (stereo not drawn) [Example 26, (3-Chloro-6-methoxy-pyrazin-2-yl)-[4-fluoro-3-(7-morpholin-4-yl-quinazolin-4-yl)phenyl]-methanol]",< 3,< 500,–,> 25000
"O[C@H](c1ccc(F)c(-c2ncnc3cc(N4CCOCC4)ccc23)c1)c1nccnc1Cl [Example 27, (R)-(3-Chloro-pyrazin-2-yl)-[4-fluoro-3-(7-morpholin-4-yl-quinazolin-4-yl)phenyl]-methanol]",< 3,< 500,–,> 25000
"O[C@@H](c1ccc(F)c(-c2ncnc3cc(N4CCOCC4)ccc23)c1)c1nccnc1Cl [Example 28, (S)-(3-Chloro-pyrazin-2-yl)-[4-fluoro-3-(7-morpholin-4-yl-quinazolin-4-yl)phenyl]-methanol]",7 to 30,5000 to 10000,15000 to 25000,–
"COc1cnc(C(O)c2ccc(F)c(-c3ncnc4cc(N5CCOCC5)ccc34)c2)c(Cl)c1 (stereo not drawn) [Example 31, (3-Chloro-5-methoxy-pyridin-2-yl)-[4-fluoro-3-(7-morpholin-4-yl-quinazolin-4-yl)phenyl]-methanol]",< 3,< 500,10000 to 15000,–
"OC(c1ccc(F)c(-c2ncnc3cc(N4CCOCC4)ccc23)c1)c1nccnc1OC1COC1 (stereo not drawn) [Example 32, [4-fluoro-3-(7-morpholin-4-yl-quinazolin-4-yl)phenyl]-[3-(oxetan-3-yloxy)-pyrazin-2-yl]methanol]",7 to 30,5000 to 10000,15000 to 25000,–
"OC(c1ccc(F)c(-c2ncnc3cc(N4CCOCC4)ccc23)c1)c1cnccn1 (stereo not drawn) [Example 33, [4-Fluoro-3-(7-morpholin-4-yl-quinazolin-4-yl)phenyl]-pyrazin-2-ylmethanol]",7 to 30,10000 to 30000,–,< 10000
"OC(c1cnccn1)c1cc(-c2ncnc3cc(N4CCOCC4)ccc23)c(F)cc1Cl (stereo not drawn) [Example 34, [2-Chloro-4-fluoro-5-(7-morpholin-4-yl-quinazolin-4-yl)phenyl]-pyrazin-2-ylmethanol]",7 to 30,5000 to 10000,15000 to 25000,–
"OC(c1ccc(F)c(-c2ncnc3cc(N4CCOCC4)ccc23)c1)c1nc(Cl)cnc1Cl (stereo not drawn) [Example 35, (3,6-Dichloro-pyrazin-2-yl)-[4-fluoro-3-(7-morpholin-4-yl-quinazolin-4-yl)phenyl]-methanol]",< 3,< 500,10000 to 15000,–
"OC(c1ccnnc1)c1cc(-c2ncnc3cc(N4CCOCC4)ccc23)c(F)cc1Cl (stereo not drawn) [Example 36, [2-Chloro-4-fluoro-5-(7-morpholin-4-yl-quinazolin-4-yl)phenyl]-pyridazin-4-ylmethanol]",< 3,< 500,–,> 25000
"OC(c1ccc(F)c(-c2ncnc3cc(N4CCOCC4)sc23)c1)c1nccnc1Cl (stereo not drawn) [Example 37, (3-Chloropyrazin-2-yl)-[4-fluoro-3-(6-morpholin-4-ylthieno[3,2-d]pyrimidin-4-yl)phenyl]-methanol]",< 3,< 500,10000 to 15000,–
"COc1nccnc1C(O)c1ccc(F)c(-c2ncnc3cc(N4CCOCC4)ccc23)c1 (stereo not drawn) [Example 38, [4-Fluoro-3-(7-morpholin-4-yl-quinazolin-4-yl)phenyl]-(3-methoxy-pyrazin-2-yl)methanol]",< 3,< 500,–,> 25000
"OC(c1ccn2nccc2n1)c1cc(-c2ncnc3cc(N4CCOCC4)ccc23)c(F)cc1Cl (stereo not drawn) [Example 39, [2-Chloro-4-fluoro-5-(7-morpholin-4-yl-quinazolin-4-yl)phenyl]-pyrazolo[1,5-a]-pyrimidin-5-ylmethanol]",3 to 7,< 500,15000 to 25000,–
"COc1nnc(C(O)c2cc(-c3ncnc4cc(N5CCOCC5)ccc34)c(F)cc2Cl)c2ccncc12 (stereo not drawn) [Example 40, [2-Chloro-4-fluoro-5-(7-morpholin-4-yl-quinazolin-4-yl)phenyl]-(4-methoxypyrido-[3,4-d}pyridazin-1-yl)-methanol]",7 to 30,500 to 5000,10000 to 15000,–
"OC(c1ccc(Cl)nn1)c1cc(-c2ncnc3cc(N4CCOCC4)ccc23)c(F)cc1Cl (stereo not drawn) [Example 41, [2-Chloro-4-fluoro-5-(7-morpholin-4-yl-quinazolin-4-yl)phenyl]-(6-chloro-pyridazin-3-yl)methanol]",3 to 7,< 500,15000 to 25000,–
"OC(c1ccc(F)c(-c2ncnc3cc(N4CCOCC4)ccc23)c1)c1ncccc1Cl (stereo not drawn) [Example 42, (3-Chloro-pyridin-2-yl)-[4-fluoro-3-(7-morpholin-4-yl-quinazolin-4-yl)phenyl]-methanol]",< 3,< 500,15000 to 25000,–
"CNC(=O)c1ccc(C(O)c2cc(-c3ncnc4cc(N5CCOCC5)ccc34)c(F)cc2Cl)nn1 (stereo not drawn) [Example 43, 6-{[2-Chloro-4-fluoro-5-(7-morpholin-4-yl-quinazolin-4-yl)phenyl]-hydroxymethyl}-pyridazine-3-carboxylic acid methylamide]",3 to 7,500 to 5000,–,> 25000
"Cc1cnnc(C(O)c2cc(-c3ncnc4cc(N5CCOCC5)ccc34)c(F)cc2Cl)c1 (stereo not drawn) [Example 46, [2-Chloro-4-fluoro-5-(7-morpholin-4-yl-quinazolin-4-yl)phenyl]-(5-methylpyridazin-3-yl)methanol]",7 to 30,5000 to 10000,15000 to 25000,–
"OC(c1cccnn1)c1cc(-c2ncnc3cc(N4CCOCC4)ccc23)c(F)cc1Cl (stereo not drawn) [Example 47, [2-Chloro-4-fluoro-5-(7-morpholin-4-yl-quinazolin-4-yl)phenyl]-pyridazin-3-ylmethanol]",3 to 7,< 500,–,> 25000
"OC(c1cccnn1)c1cc(-c2ncnc3cc(N4CCOCC4)ccc23)c(F)cc1F (stereo not drawn) [Example 48, [2,4-Difluoro-5-(7-morpholin-4-yl-quinazolin-4-yl)phenyl]-pyridazin-3-ylmethanol]",3 to 7,500 to 5000,15000 to 25000,–
"OC(c1ccc(Cl)nn1)c1cc(-c2ncnc3cc(N4CCOCC4)ccc23)c(F)cc1F (stereo not drawn) [Example 49, (6-Chloro-pyridazin-3-yl)-[2,4-difluoro-5-(7-morpholin-4-yl-quinazolin-4-yl)phenyl]-methanol]",< 3,500 to 5000,–,> 25000
"CN(C)C(=O)c1ccc(C(O)c2cc(-c3ncnc4cc(N5CCOCC5)ccc34)c(F)cc2Cl)nn1 (stereo not drawn) [Example 50, 6-{[2-Chloro-4-fluoro-5-(7-morpholin-4-yl-quinazolin-4-yl)phenyl]-hydroxymethyl}-pyridazine-3-carboxylic acid dimethylamide]",7 to 30,10000 to 30000,–,> 25000
"OC(c1ccc2nccn2n1)c1cc(-c2ncnc3cc(N4CCOCC4)ccc23)c(F)cc1F (stereo not drawn) [Example 51, [2,4-Difluoro-5-(7-morpholin-4-yl-quinazolin-4-yl)phenyl]-imidazo[1,2-b]pyridazin-6-ylmethanol]",< 3,< 500,15000 to 25000,–
"COc1cnc(C(O)c2ccc(F)c(-c3ncnc4cc(N5CCOCC5)ccc34)c2)cn1 (stereo not drawn) [Example 52, [4-Fluoro-3-(7-morpholin-4-yl-quinazolin-4-yl)phenyl]-(5-methoxy-pyrazin-2-yl)methanol]",3 to 7,5000 to 10000,–,> 25000
"COc1cnc(C(O)c2ccc(F)c(-c3ncnc4cc(N5CCOCC5)ccc34)c2)cn1 (stereo not drawn) [Example 53, [4-Fluoro-3-(7-morpholin-4-yl-quinazolin-4-yl)phenyl]-(5-methoxy-pyrazin-2-yl)methanol]",3 to 7,5000 to 10000,–,> 25000
